Series [1] can be described thus: log P by HPLC on reversed-phase column (C 18), EEC Directive 79/831 Annex V.A8. The format is physicochemical. The conditions noted are these: 55° C.; for chromatographic logP: reversed-phase HPLC column (C 18); for LOGP_HCOOH: log P (HCOOH). As to the method:
Temperature: 55° C. […] Called log P (HCOOH) in the table. […] Called log P (neutral) in the table.

The next series relates to Spodoptera frugiperda. The series is described as follows: Spodoptera frugiperda spray test. The format is in vivo. The conditions noted are these: after 7 days, maize leaf discs. As to the method: Spodoptera frugiperda—Spray Test
Solvent: 78.0 parts by weight of acetone • • 1.5 parts by weight of dimethylformamide
Emulsifier: alkylaryl polyglycol ether
To produce a suitable active ingredient formulation, 1 part by weight of active ingredient is dissolved with the specified parts by weight of solvent and made up with water containing an emulsifier concentration of 1000 ppm until the desired concentration is attained. To produce further test concentrations, the formulation is diluted with emulsifier-containing water.
Leaf discs of maize (Zea mays) are sprayed with an active ingredient formulation of the desired concentration and, after drying, populated with caterpillars of the armyworm (Spodoptera frugiperda).
After 7 days, the efficacy in % is determined. 100% means that all the caterpillars have been killed; 0% means that no caterpillar has been killed.

Where [2] appears, read: pH 2.7, LC-MS acidic range, pH 2.7, 0.1% formic acid/acetonitrile, read-out: log P (acidic) / log P (HCOOH).
Setting [3] is: pH 7.8, LC-MS neutral range, pH 7.8, ammonium hydrogencarbonate/acetonitrile, read-out: log P (neutral).
The mark [4] stands for this setting: acidic range at pH 2.7, 0.1% aqueous formic acid and acetonitrile, HPLC on reversed-phase column (C 18).
[5] abbreviates: log P, neutral range, HPLC on reversed-phase column (C 18).
Where [6] appears, read: acidic range pH 2.7, 0.1% aqueous formic acid and acetonitrile, reversed-phase column (C 18).

Like-named read-outs stand apart in the source and are kept apart here.

Take `O=C(Nc1cc(-c2ccc(C(F)(F)C(F)(F)F)c(F)c2)cc(Cl)n1)C1CC1` [XXII-1, N-{6-Chloro-4-[3-fluoro-4-(pentafluoroethyl)phenyl]pyridin-2-yl}cyclopropanecarboxamide]: the chromatographic logP in series [1] (setting [2]) is 4.76; in series [1] (setting [3]), 4.64. For `N#Cc1ccc(CNC(=O)c2cc(-c3ccc(OC(F)=C(F)F)cc3)cc(NC(=O)C3CC3)n2)cc1` [Example I-171], the LOGP_HCOOH in series [1] (setting [4]) came out at 3.96. In series [1] (setting [5]), this compound showed an LOGP_NEUTRAL of 3.82.

In the case of `CC(=O)N(C)c1cc(-c2ccc(OC(F)(F)F)cc2)cc(C(=O)NCc2ccc(C#N)cc2)n1` [Example I-220], the LOGP_HCOOH in series [1] (setting [4]) is 3.39. Further, the LOGP_NEUTRAL in series [1] (setting [5]) is on record as 3.35. In addition, the “efficacy (caterpillars killed)” value with Spodoptera frugiperda (application rate 500 g/ha) is on record as 100%.

Turning to `CON(C)C(=O)c1cc(-c2ccc(OC(F)(F)F)cc2)cc(NC(=O)C2CC2)n1` [Example I-183], in series [1] (setting [4]), the LOGP_HCOOH stood at 3.22. The compound further came in with an LOGP_NEUTRAL in series [1] (setting [5]) of 3.18. Compound `CN(C(=O)c1cc(-c2ccc(C(F)(F)F)cc2)cc(NC(=O)C2CC2)n1)c1cccnc1` [Example I-034] gave an LOGP_HCOOH in series [1] (setting [6]) of 2.73. The compound also had an LOGP_NEUTRAL in series [1] (setting [5]) of 2.72. The “efficacy (caterpillars killed)” value in the series with Spodoptera frugiperda (application rate 500 g/ha) worked out at 100%. For the compound `CC(C)C(=O)Nc1cc(-c2ccc(C(F)(F)F)cc2)cc(C(=O)NCc2ccc(Cl)nc2)n1` [Example I-014], the LOGP_HCOOH in series [1] (setting [6]) stood at 3.88. In series [1] (setting [5]), this compound showed an LOGP_NEUTRAL of 3.81. In the series on Spodoptera frugiperda (application rate 500 g/ha), the “efficacy (caterpillars killed)” value is recorded as 80%.

Take `Nc1cc(-c2ccc(Cl)cc2)cc(C(=O)O)n1` [XIX-1, 6-Amino-4-(4-chlorophenyl)pyridine-2-carboxylic acid]: the chromatographic logP in series [1] (setting [2]) is 1.02. In series [1] (setting [4]), `N#CC1(NC(=O)c2cc(-c3ccc(OC(F)(F)F)cc3)cc(NC(=O)C3CC3)n2)CCOCC1` [Example I-134] showed an LOGP_HCOOH of 3.58. Moreover, the figures for the “efficacy (caterpillars killed)” value in the series on Spodoptera frugiperda (application rate 100 g/ha) and with Spodoptera frugiperda (application rate 500 g/ha) were 83% and 100%, respectively.

Take `N#Cc1ccc(CNC(=O)c2cc(-c3ccc(OC(F)(F)F)cc3)cc(Cl)n2)cc1` [XVII-1, 6-Chloro-N-(4-cyanobenzyl)-4-[4-(trifluoromethoxy)phenyl]pyridine-2-carboxamide]: the chromatographic logP in series [1] (setting [2]) turned out to be 4.23; in series [1] (setting [3]) it was 4.19. As for `N#Cc1cccc(CNC(=O)c2cc(-c3ccc(F)cc3)cc(NC(=O)C3CC3)n2)c1` [Example I-001], the LOGP_HCOOH in series [1] (setting [6]) came to 3.26. On to `FC(F)(F)Oc1ccc(-c2cc(Cl)nc(Cl)c2)cc1` [XIV-1, 2,6-Dichloro-4-[4-(trifluoromethoxy)phenyl]pyridine], for which the chromatographic logP in series [1] (setting [2]) was found to be 4.63; in series [1] (setting [3]) it was 4.62. For the compound `O=C(NCC1CCC(C(F)(F)F)CC1)c1cc(-c2ccc(OC(F)(F)F)cc2)cc(NC(=O)C2CC2)n1` (stereo not drawn) [Example I-156], the LOGP_HCOOH in series [1] (setting [4]) came to 4.97. This compound also registered an LOGP_NEUTRAL in series [1] (setting [5]) of 4.85. The “efficacy (caterpillars killed)” value with Spodoptera frugiperda (application rate 100 g/ha) and with Spodoptera frugiperda (application rate 500 g/ha) was 100% each time.

`CCc1cc(C(F)(F)C(F)(F)F)cc(C)c1-c1cc(NC(=O)C2CC2)nc(C(=O)NCc2ccc(C#N)cc2)c1` [Example I-148, N-(4-Cyanobenzyl)-6-[(cyclopropylcarbonyl)amino]-4-[2-ethyl-6-methyl-4-(pentafluoroethyl)phenyl]pyridine-2-carboxamide]: the LOGP_HCOOH in series [1] (setting [4]) was 4.85. In series [1] (setting [5]), this compound came in with an LOGP_NEUTRAL of 4.72. Besides, the chromatographic logP in series [1] (setting [2]) stood at 4.85; in series [1] (setting [3]), 4.72. Moreover, in the series with Spodoptera frugiperda (Spodoptera frugiperda, foliar, 168 h, application rate 500 g/ha, read-out: efficacy (caterpillars killed)), the pest or weed control at 500 g/ha was 100%. Take `N#Cc1ccc(CNC(=O)c2cc(-c3cc(F)c(C(F)(F)C(F)(F)F)c(Cl)c3)cc(NC(=O)C3CC3)n2)cc1` [Example I-278]: in series [1] (setting [6]), the LOGP_HCOOH was determined as 4.67. In addition, in series [1] (log P (neutral), HPLC reversed-phase column (C 18)), the LOGP_NEUTRAL is listed as 4.52. Consider `N#Cc1cc(-c2ccc(OC(F)(F)F)cc2)cc(NC(=O)C2CC2)n1` [XXIX-1, N-{6-Cyano-4-[4-(trifluoromethoxy)phenyl]pyridin-2-yl}cyclopropanecarboxamide], for which the results for the chromatographic logP in series [1] (setting [2]) and in series [1] (setting [3]) were 3.85 and 3.89, respectively. The corresponding values for `Fc1cc(-c2cc(Cl)nc(Cl)c2)ccc1C(F)(F)C(F)(F)F` [XIV-2, 2,6-Dichloro-4-[3-fluoro-4-(pentafluoroethyl)phenyl]pyridine] are 4.92 and 4.97. On to `NNC(=O)c1cc(-c2ccc(OC(F)(F)F)cc2)cc(NC(=O)C2CC2)n1` [XXIV-1, N-{6-(Hydrazinocarbonyl)-4-[4-(trifluoromethoxy)phenyl]pyridin-2-yl}cyclopropanecarboxamide], for which the chromatographic logP is 2.57 in series [1] (setting [2]) and 2.55 in series [1] (setting [3]).

`O=C(O)c1cc(-c2ccc(OC(F)(F)F)cc2)cc(Cl)n1` [XVI-1, 6-Chloro-4-[4-(trifluoromethoxy)phenyl]pyridine-2-carboxylic acid]: the chromatographic logP in series [1] (setting [2]) stood at 3; in series [1] (setting [3]) it was 1.17. Take `CC(C)C(=O)Nc1cc(-c2ccc(C(F)(F)F)cc2)cc(C(=O)NCc2cc(F)c(C#N)c(F)c2)n1` [Example I-072]: the LOGP_HCOOH in series [1] (setting [6]) is 4.23. In series [1] (setting [5]), this compound returned an LOGP_NEUTRAL of 4.04. Turning to `CN(C(=O)c1cc(-c2ccc(C(F)(F)F)cc2)cc(N)n1)C1CC1` [XX-2, 6-Amino-N-cyclopropyl-N-methyl-4-[4-(trifluoromethyl)phenyl]pyridine-2-carboxamide], the chromatographic logP in series [1] (setting [3]) was determined as 2.4. Turning to `N#Cc1ccc(CNC(=O)c2cc(B(O)O)cc(NC(=O)C3CC3)n2)cc1` [Example X-1b, {2-[(4-Cyanobenzyl)carbamoyl]-6-[(cyclopropylcarbonyl)amino]pyridin-4-yl}boric acid], the figures for the chromatographic logP in series [1] (setting [2]) and in series [1] (setting [3]) were 1.58 and 1.25, respectively. As to `O=C(NC1CCCCC1)c1cc(-c2ccc(OC(F)(F)F)cc2)cc(NC(=O)C2CC2)n1` [Example I-168], in series [1] (setting [4]), the LOGP_HCOOH is listed as 4.74. In series [1] (setting [5]), this compound had an LOGP_NEUTRAL of 4.57. Turning to `CNc1cc(-c2ccc(OC(F)(F)F)cc2)cc(C(=O)NCc2ccc(C#N)cc2)n1` [XVIII-1, N-(4-Cyanobenzyl)-6-(methylamino)-4-[4-(trifluoromethoxy)phenyl]pyridine-2-carboxamide], the chromatographic logP in series [1] (setting [2]) and in series [1] (setting [3]) was 3.63 each time. Turning to `N#Cc1ccc(CNC(=O)c2cc(-c3ccc(Cl)cc3)cc(N)n2)cc1` [XX-1, 6-Amino-4-(4-chlorophenyl)-N-(4-cyanobenzyl)pyridine-2-carboxamide], the chromatographic logP in series [1] (setting [3]) was found to be 2.82. In the case of `O=C(O)c1cc(-c2ccc(OC(F)(F)F)cc2)cc(NC(=O)C2CC2)n1` [6-[(Cyclopropylcarbonyl)amino]-4-[4-(trifluoromethoxy)phenyl]pyridine-2-carboxylic acid], the chromatographic logP was found to be 2.72 in series [1] (setting [2]) and 1.25 in series [1] (setting [3]). For `Nc1cc(-c2ccc(C(F)(F)C(F)(F)F)c(F)c2)cc(Cl)n1` [XXI-1, 6-Chloro-4-[3-fluoro-4-(pentafluoroethyl)phenyl]pyridin-2-amine], the chromatographic logP in series [1] (setting [2]) worked out at 3.85; in series [1] (setting [3]), 3.83. Take `N#CC1CCN(C(=O)c2cc(-c3ccc(OC(F)(F)F)cc3)cc(NC(=O)C3CC3)n2)CC1` [Example I-199]: the LOGP_HCOOH in series [1] (setting [4]) was 3.21. `C=Cc1cc(-c2ccc(OC(F)(F)F)cc2)cc(Cl)n1` [XV-1, 2-Chloro-4-[4-(trifluoromethoxy)phenyl]-6-vinylpyridine]: the chromatographic logP in series [1] (setting [2]) amounted to 4.77; in series [1] (setting [3]), 4.72.

The compound `N#Cc1ccc(CNC(=O)c2cc(-c3ccc(C(F)(F)C(F)(F)F)c(F)c3Cl)cc(NC(=O)C3CC3)n2)cc1` [Example I-266] yielded an LOGP_HCOOH in series [1] (setting [6]) of 4.34. In the case of `N#Cc1ccc(CNC(=O)c2cc(-c3ccc(OC(F)(F)F)cc3)cc(NC(=O)C3(C4CC4)CC3)n2)cc1` [Example I-203], in series [1] (setting [5]), the LOGP_NEUTRAL was 3.32. Turning to `NC(=O)c1cc(-c2ccc(C(F)(F)C(F)(F)F)c(F)c2)cc(NC(=O)C2CC2)n1` [XXIII-1, 6-[(Cyclopropylcarbonyl)amino]-4-[3-fluoro-4-(pentafluoroethyl)phenyl]pyridine-2-carboxamide], the chromatographic logP in series [1] (setting [2]) amounted to 3.18; in series [1] (setting [3]), 3.17. The corresponding values for `COC(=O)c1cc(-c2ccc(OC(F)(F)F)cc2)cc(NC(=O)C2CC2)n1` [XXIII-2, Methyl 6-[(cyclopropylcarbonyl)amino]-4-[4-(trifluoromethoxy)phenyl]pyridine-2-carboxylate] are 3.63 and 3.54. `Cc1cc(-c2cc(NC(=O)C3CC3)nc(C(=O)NCc3ccc(C#N)cc3)c2)cc(F)c1C(F)(F)C(F)(F)F` [Example I-267] registered an LOGP_HCOOH in series [1] (setting [6]) of 4.45. Take `N#Cc1ccc(CNC(=O)c2cc(-c3ccc(C(F)(F)F)cc3)cc(N)n2)cc1F` [XX-3, 6-Amino-N-(4-cyano-3-fluorobenzyl)-4-[4-(trifluoromethyl)phenyl]pyridine-2-carboxamide]: the chromatographic logP in series [1] (setting [3]) came out at 3.19. In turn, `N#Cc1ccc(CNC(=O)c2cc(-c3cc(F)c(C(F)(F)C(F)(F)F)cc3F)cc(NC(=O)C3CC3)n2)cc1` [Example I-275] returned an LOGP_HCOOH in series [1] (setting [6]) of 4.11.

(Values after patent US20190053492A1, “SUBSTITUTED PYRIDINE COMPOUNDS AS PESTICIDES” (Bayer CropScience Aktiengesellschaft, priority 2016, published 2019).)
